# Data reported in US20260226493A1, “HERBICIDE RESISTANT PLANTS” (SYNGENTA CROP PROTECTION AG, priority 2023, published 2026).
# Tests used:
# Type in all cases: biochemical
# [1] = tested on: Nannochloropsis gaditana BioDA; experiment: BioDA enzyme activity with DMSO or herbicide in vitro
# Description: (§1) A pet-24 plasmid containing a DNA sequence encoding each identified variant mutant of BIO3-BIO1 derived from Arabidopsis thaliana from example 5 above, as shown in Table 13 below and as shown in full in SEQ ID NOs: 15 to 155, codon-optimised for expression in E. coli, with an N-terminal 6×His-tag and thrombin cleavage site and under control of a T7 promoter, and was synthesised by Twist Bioscience, in a similar manner to SEQ ID NO:311. These plasmids were then expressed in E. coli BL21 (DE3) bioA with 50 μg/mL kanamycin and 25 μg/mL chloramphenicol selection. Overnight cultures grown at 37° C. were used to inoculate 8×500 mL AIM in shake flasks at a ratio of 1:100. Cultures were grown at 37° C., 200 rpm for 3.5 hours and then overnight at 20° C. Cells were harvested by centrifugation for 30 minutes at 10 000 g. Cells were stored at −80° C. until extraction. 30 g of cell pellet from was thawed in 120 mL of IMAC buffer A (20 mM HEPES pH7.5, 25 mM imidazole, 500 mM sodium chloride, 0.15 mM pyridoxal phosphate, 0.5 mM TCEP, 1× complete Protease Inhibitor Tablet (Roche)). The resuspension was passed through a cell disrupter at 18 000 PSI and centrifuged at 50 000 g for 25 minutes at 4° C. The His-tagged BIO3-BIO1 protein was purified from the extract supernatant on an AKTA avant chromatography system (Cytiva) using a HisTrap FF column and eluted in IMAC buffer B ((20 mM HEPES pH7.5, 500 mM imidazole, 500 mM sodium chloride, 0.15 mM pyridoxal phosphate, 0.5 mM TCEP) followed by SEC using a HiLoad 26/60 Superdex200 column in SEC buffer (25 mM HEPES pH7.5, 150 mM sodium chloride, 0.15 mM pyridoxal phosphate, 0.5 mM TCEP). Protein concentration was measured and calculated using the absorbance at 280 nm. Extracts were diluted 1 in 4 and 10 uL was analysed by SDS PAGE.
# (§2) To measure BIO3-BIO1 mutant enzyme activity in the presence of herbicide, herbicides were incubated with 20 μL of enzyme mix (100 mM EPPS pH 8.6, 0.1 mM pyridoxal phosphate, 0.1 mg/mL BSA, 50 nM BIO3-BIO1 enzyme) for 10 minutes at 20° C. in a well of a 96-well half-area black plate, followed by the addition of 20 μL of substrate mix (final concentration of 100 mM EPPS pH 8.6, 0.1 mM pyridoxal phosphate, 0.1 mg/mL BSA, 100 μM spermidine, 20 μM KAPA, 100 mM NaCO3) and further incubation for 75 minutes at 20° C. The reaction was terminated by the addition of 50 μL of derivatisation mix (final concentration of 250 mM borate NaOH pH 9.4, 3.6 mM o-phthalaldehyde, 7 mM β-mercaptoethanol, 17% (v/v) ethanol, 3.6% (v/v) methanol). The fluorescent product produced by the reaction of DAPA with o-phthalaldehyde and 7 mM β-mercaptoethanol was measured at 470 nm after excitation at 410 nm. The percentage inhibition was calculated as the activity in the presence of one of three concentrations of each herbicide compound A to M (note that the compounds labelled as A to M are identified hereinabove in the relevant section of the description) as a percentage of the activity in DMSO (Table 12 and 13). The percentage activity versus WT was also calculated and is shown in Table 13 and 14 (NT indicates mutation not tested in table 13, note that these mutations are tested at different compound concentrations for compounds L, M and C, and the results are shown in table 14).
# (§3) The activity of various wild-type BioDA and variant enzymes was also tested when treated with DMSO or herbicide in vitro.
# (§4) Protein of Schizosaccharomyces japonicus BioDA (SEQ ID NO:13), Nannochloropsis gaditana BioDA (SEQ ID NO:3), Selaginella moellendorffii BioDA (SEQ ID NO:319), Quercus robur BioDA (SEQ ID NOA11), Ostreococcus tauri BioDA (SEQ ID NO:9), and the variants of Ostreococcus tauri BioDA A374D, F332A and P407A (SEQ ID Nos:321-323) was prepared using the method in Example 6. BioDA enzyme activity in the presence of herbicide or DMSO in vitro for each of the proteins was assayed according to the enzyme assay method above. The results are shown in Table 26 provided below in the “TABLES” section.
# [2] = tested on: Ostreococcus tauri BioDA; experiment: as above; conditions: Ostreococcus tauri BioDAΔMTP
# Description: as §1, §2, §3, §4
# [3] = tested on: Quercus robur BioDA; experiment: as above; conditions: Quercus robur BioDAΔMTP
# Description: as §1, §2, §3, §4
# [4] = tested on: Schizosaccharomyces japonicus BioDA; experiment: as above
# Description: as §1, §2, §3, §4
# [5] = tested on: Selaginella moellendorffii BioDA; experiment: as above; conditions: Selaginella moellendorcffii BioDAΔMTP
# Description: as §1, §2, §3, §4
# [6] = tested on: Bacillus subtilis BioA; experiment: BioA enzyme activity with DMSO or herbicide in vitro; conditions: spermidine in substrate mix
# Description: as §1, §2
# (§5) Protein of Escherichia coli BioA (SEQ ID NO:159), Pantoea ananatis BioA (SEQ ID NO:167), Streptomyces viridochromogenes BioA (SEQ ID NO:170), Cryptosporidium andersoni BioA (SEQ ID NO:160), Stenotrophomonas maltophilia BioA (SEQ ID NO:171), Chroococcidiopsis BioA (SEQ ID NO:184), Pedobacter hartonius BioA (SEQ ID NO:181), Chitinophaga filiformis BioA (SEQ ID NO:180), Tenacibaculum adriaticum BioA (SEQ ID NO:185) and Bacillus subtilis BioA (SEQ ID NO:166) was prepared using the method in Example 6. BioA enzyme activity in the presence of herbicide or DMSO in vitro for each of the proteins was assayed according to the enzyme assay method in Example 6, except in some reactions spermidine was replaced with 2 mM S-Adenosyl methionine.
# [7] = tested on: Chitinophaga filiformis BioA; experiment: as above; conditions: spermidine in substrate mix
# Description: as §1, §2, §5
# [8] = tested on: Pedobacter hartonius BioA; experiment: as above; conditions: spermidine in substrate mix
# Description: as §1, §2, §5
# [9] = tested on: Stenotrophomonas maltophilia BioA; experiment: as above; conditions: spermidine in substrate mix
# Description: as §1, §2, §5
# [10] = tested on: Streptomyces viridochromogenes BioA; experiment: as above; conditions: SAM in substrate mix
# Description: as §1, §2, §5
compound,measurement,setting,value
"CCOC(=O)c1nn(-c2ccc3c(c2)OC(F)(F)C(F)(F)O3)c2cccc(C(C)=O)c2c1=O [Compound A, ethyl 5-acetyl-4-oxo-1-(2,2,3,3-tetrafluoro-1,4-benzodioxin-6-yl)cinnoline-3-carboxylate]",% Inhibition relative to DMSO treatment,[1]; 25 μM,5%
same,% Inhibition relative to DMSO treatment,[2]; 25 μM,0%
same,% Inhibition relative to DMSO treatment,[3]; 25 μM,72%
same,% Inhibition relative to DMSO treatment,[4]; 25 μM,2%
same,% Inhibition relative to DMSO treatment,[5]; 25 μM,25%
same,% Inhibition relative to DMSO treatment,[6]; 25 μM,0%
same,% Inhibition relative to DMSO treatment,[7]; 25 μM,0%
same,% Inhibition relative to DMSO treatment,[8]; 25 μM,6%
same,% Inhibition relative to DMSO treatment,[9]; 25 μM,0%
same,% Inhibition relative to DMSO treatment,[10]; 25 μM,0%
"CC(O)C(N)CCCCC(=O)O.Cl (centres unmarked) [Compound B, [5-carboxy-1-(1-hydroxyethyl)pentyl]ammonium chloride]",% Inhibition relative to DMSO treatment,[1]; 200 μM,92%
same,% Inhibition relative to DMSO treatment,[2]; 200 μM,62%
same,% Inhibition relative to DMSO treatment,[3]; 200 μM,93%
same,% Inhibition relative to DMSO treatment,[4]; 200 μM,70%
same,% Inhibition relative to DMSO treatment,[5]; 200 μM,64%
same,% Inhibition relative to DMSO treatment,[6]; 200 μM,0%
same,% Inhibition relative to DMSO treatment,[7]; 200 μM,12%
same,% Inhibition relative to DMSO treatment,[8]; 200 μM,96%
same,% Inhibition relative to DMSO treatment,[9]; 200 μM,50%
same,% Inhibition relative to DMSO treatment,[10]; 200 μM,0%
"CCn1c(C)c(-c2ccc(F)cc2F)c(=O)c(C(=O)O)c1-c1ccc(Cl)c(Cl)c1 [Compound C, 2-(3,4-dichlorophenyl)-5-(2,4-difluorophenyl)-1-ethyl-6-methyl-4-oxo-pyridine-3-carboxylic acid]",% Inhibition relative to DMSO treatment,[1]; 0.5 μM,8%
same,% Inhibition relative to DMSO treatment,[2]; 0.5 μM,0%
same,% Inhibition relative to DMSO treatment,[3]; 0.5 μM,32%
same,% Inhibition relative to DMSO treatment,[4]; 0.5 μM,17%
same,% Inhibition relative to DMSO treatment,[5]; 0.5 μM,9%
same,% Inhibition relative to DMSO treatment,[6]; 0.5 μM,0%
same,% Inhibition relative to DMSO treatment,[7]; 0.5 μM,12%
same,% Inhibition relative to DMSO treatment,[8]; 0.5 μM,0%
same,% Inhibition relative to DMSO treatment,[9]; 0.5 μM,0%
same,% Inhibition relative to DMSO treatment,[10]; 0.5 μM,0%
"CCn1c(C)c(-c2cc(OC(F)(F)F)ccc2Cl)c(=O)c(C(=O)O)c1-c1ccc(Cl)c(Cl)c1 [Compound D, 5-[2-chloro-5-(trifluoromethoxy)phenyl]-2-(3,4-dichlorophenyl)-1-ethyl-6-methyl-4-oxo-pyridine-3-carboxylic acid]",% Inhibition relative to DMSO treatment,[1]; 0.5 μM,14%
same,% Inhibition relative to DMSO treatment,[2]; 0.5 μM,0%
same,% Inhibition relative to DMSO treatment,[2]; 5 μM,36%
same,% Inhibition relative to DMSO treatment,[3]; 0.5 μM,88%
same,% Inhibition relative to DMSO treatment,[4]; 0.5 μM,87%
same,% Inhibition relative to DMSO treatment,[5]; 0.5 μM,75%
same,% Inhibition relative to DMSO treatment,[6]; 0.5 μM,0%
same,% Inhibition relative to DMSO treatment,[7]; 0.5 μM,0%
same,% Inhibition relative to DMSO treatment,[8]; 0.5 μM,7%
same,% Inhibition relative to DMSO treatment,[9]; 0.5 μM,76%
same,% Inhibition relative to DMSO treatment,[10]; 0.5 μM,0%
"C[C@@H](N)COc1cccc(C(=O)O)n1.Cl.Cl [Compound E, [(1R)-2-(6-carboxypyridin-1-ium-2-yl)oxy-1-methyl-ethyl]ammonium dichloride]",% Inhibition relative to DMSO treatment,[1]; 200 μM,66%
same,% Inhibition relative to DMSO treatment,[2]; 200 μM,53%
same,% Inhibition relative to DMSO treatment,[3]; 200 μM,96%
same,% Inhibition relative to DMSO treatment,[4]; 200 μM,28%
same,% Inhibition relative to DMSO treatment,[5]; 200 μM,69%
same,% Inhibition relative to DMSO treatment,[6]; 200 μM,0%
same,% Inhibition relative to DMSO treatment,[7]; 200 μM,28%
same,% Inhibition relative to DMSO treatment,[8]; 200 μM,80%
same,% Inhibition relative to DMSO treatment,[9]; 200 μM,74%
same,% Inhibition relative to DMSO treatment,[10]; 200 μM,0%
"CCn1c(Cn2ccc(C(F)(F)F)n2)cc(=O)c(C(=O)O)c1-c1ccc(Cl)c(Cl)c1 [Compound L, 2-(3,4-dichlorophenyl)-1-ethyl-4-oxo-6-[[3-(trifluoromethyl)pyrazol-1-yl]methyl]pyridine-3-carboxylic acid]",% Inhibition relative to DMSO treatment,[1]; 0.5 μM,6%
same,% Inhibition relative to DMSO treatment,[2]; 0.5 μM,5%
same,% Inhibition relative to DMSO treatment,[2]; 31 μM,83%
same,% Inhibition relative to DMSO treatment,[2]; 500 μM,98%
same,% Inhibition relative to DMSO treatment,[3]; 0.5 μM,83%
same,% Inhibition relative to DMSO treatment,[4]; 0.5 μM,0%
same,% Inhibition relative to DMSO treatment,[4]; 31 μM,55%
same,% Inhibition relative to DMSO treatment,[4]; 500 μM,94%
same,% Inhibition relative to DMSO treatment,[5]; 0.5 μM,9%
same,% Inhibition relative to DMSO treatment,[6]; 0.5 μM,0%
same,% Inhibition relative to DMSO treatment,[7]; 0.5 μM,11%
same,% Inhibition relative to DMSO treatment,[8]; 0.5 μM,2%
same,% Inhibition relative to DMSO treatment,[9]; 0.5 μM,0%
same,% Inhibition relative to DMSO treatment,[9]; 31 μM,0%
same,% Inhibition relative to DMSO treatment,[9]; 500 μM,16%
same,% Inhibition relative to DMSO treatment,[10]; 0.5 μM,0%
same,% Inhibition relative to DMSO treatment,[10]; 31 μM,16%
same,% Inhibition relative to DMSO treatment,[10]; 500 μM,34%
"CCn1c(-c2ccc(Cl)c(Cl)c2)c(C(=O)O)c(=O)c2cc(F)ccc21 [Compound M, 2-(3,4-dichlorophenyl)-1-ethyl-6-fluoro-4-oxo-quinoline-3-carboxylic acid]",% Inhibition relative to DMSO treatment,[1]; 0.5 μM,3%
same,% Inhibition relative to DMSO treatment,[2]; 0.5 μM,0%
same,% Inhibition relative to DMSO treatment,[2]; 31 μM,45%
same,% Inhibition relative to DMSO treatment,[2]; 500 μM,92%
same,% Inhibition relative to DMSO treatment,[3]; 0.5 μM,22%
same,% Inhibition relative to DMSO treatment,[4]; 0.5 μM,15%
same,% Inhibition relative to DMSO treatment,[4]; 31 μM,95%
same,% Inhibition relative to DMSO treatment,[4]; 500 μM,99%
same,% Inhibition relative to DMSO treatment,[5]; 0.5 μM,0%
same,% Inhibition relative to DMSO treatment,[6]; 0.5 μM,4%
same,% Inhibition relative to DMSO treatment,[7]; 0.5 μM,0%
same,% Inhibition relative to DMSO treatment,[8]; 0.5 μM,0%
same,% Inhibition relative to DMSO treatment,[9]; 0.5 μM,1%
same,% Inhibition relative to DMSO treatment,[10]; 0.5 μM,0%
